Laboratory results as given in patent US6620838B1, “Benzopyrazone compounds, compositions thereof, and methods of treatment therewith” (Signal Pharmaceuticals, Inc., priority 2002, dated 2003).

What was measured:
Assay type in all cases: cell-based
[1] = system: BG-1 ovarian carcinoma cells; assay: Inhibition of BG-1 ovarian carcinoma cell proliferation; conditions: 17β-estradiol (0.1 nM)-dependent growth, 72 h, 3H-thymidine incorporation
Protocol: BG-1 cells serve as a useful in vitro model for the evaluation of the effects of antiestrogenic compounds on ovarian tumor growth (Greenberger, L. M. et. al., Clin. Cancer Res. 7:3166-3177, 2001). Benzopyranone compounds having an IC50<100 nM are particularly useful as anti-ovarian cancer agents in vivo.
BG-1 ovarian carcinoma cells were plated in 24-well dishes at a density of 5×10^3 cells/well in phenol-red free DMEM:F-12 (1:1) medium containing 1% antibiotics, 0.05% mercaptoethanol, 0.01% ethanolamine, 0.42 ng/mL sodium selenite and 5% charcoal-stripped FCS. Illustrative benzopyranone compounds (0.1-1000 nM in 0.2% DMSO) and 0.1 nM 17β-estradiol were added to the cultured BG-1 ovarian carcinoma cells and incubated for 72 h. Subsequently, ^3H-labeled thymidine was added and its incorporation into cells was measured following 4h incubation. The results are expressed as IC50 (nM) values (Table 2) which is the concentration of the benzopyranone compound necessary to inhibit the growth of BG-1 ovarian carcinoma cells by 50% relative to controls.

[2] = system: MCF-7 breast cancer cells; assay: Inhibition of MCF-7 breast cancer cell proliferation; conditions: Homo sapiens, MCF7; 17β-estradiol (0.1 nM)-dependent growth, 72 h, 3H-thymidine incorporation
Protocol: MCF-7 cells represent an excellent in vitro system to study the effects of compounds on estrogen-dependent breast cancer growth. (May, F. E. B.; Westley, B. R. J. Biol. Chem. 262:15894-15899, 1987). Benzopyranone compounds having an IC50<100 nM are particularly useful as anti-breast cancer agents in vivo.
MCF-7 breast carcinoma cells were plated in 24-well dishes at a density of 5×10^3 cells/well in phenol-red free DMEM:F-12 (1:1) medium containing 1% antibiotics, 0.05% mercaptoethanol, 0.01% ethanolamine, 0.42 ng/mL sodium selenite and 5% charcoal-stripped FCS.
Illustrative benzopyranone compounds (0.1-1000 nM in 0.2% DMSO) and 0.1 nM 17β-estradiol were added to the cultured MCF-7 breast cancer cells for 72 h. Subsequently, ^3H-labeled thymidine was added and its incorporation into cells was measured following 4 h incubation. The results are expressed as IC50 (nM) values (Table 2) which is the concentration of the benzopyranone compound necessary to inhibit the growth of MCF-7 breast cancer cells by 50% relative to controls.

[3] = system: IL-6 release from human U-2 OS osteosarcoma cells stably transfected with human ER-α or ER-β; assay: Inhibition of IL-6 release; conditions: U2OS, U-2 OS cells with ER-α or ER-β (table does not say which), stimulated with 2.5 ng/ml TNFα and 1 ng/ml IL-1β, IL-6 ELISA after 24 h
Protocol: Illustrative benzopyranone compounds were tested for their ability to inhibit IL-6 release from human U-2 OS osteosarcoma cells stably transfected with human ER-α or ER-β. (Stein, B.; Yang, M. X. Mol. Cell. Biol 15: 4971-4979, 1995; Poli, V. et. al., EMBO J. 13:1189-1196, 1994). […] Benzopyranone compounds having an IC50<100 nM are particularly useful as bone resorption inhibitors in vivo. Accordingly, the compounds of this assay, illustrative benzopyranone compounds, are particularly useful for the treatment of osteoporosis, Paget's disease and metastatic bone cancer. These compounds are also useful as anti-cancer agents as elevated IL-6 levels are responsible for certain cancers such as multiple myeloma, prostate cancer, ovarian cancer, renal carcinoma and cervical carcinoma.
Human U-2 OS osteosarcoma cells (ATCC) were stably transfected with expression vectors for human full-length ER-α or ER-β, respectively, using standard molecular biology techniques. Stable subclones were generated that expressed high levels of ER-α or ER-β mRNA. The expression of ER-α and ER-β was confirmed using RNase protection analysis.
Cells were plated into 96-well plates at a density of 80,000 cells per well in phenol red-free media with charcoal-stripped fetal calf serum. Twenty four hours later, cells were either treated with vehicle (0.2% DMSO) or test compound ([…] in 0.2% DMSO). Thirty minutes later cells were stimulated with 2.5 ng/ml TNFα and 1 ng/ml IL-1β. Twenty-four hours later the media supernatant was analyzed for cytokine production (IL-6) using commercially available ELISA kits following the manufacturer's instructions. Cytokine production in the presence of vehicle (0.2% DMSO) was set to 100%. The results are expressed as IC50 (nM) values (Table 2) which is the concentration of the benzopyranone compound necessary to inhibit the production of IL-6 50% relative to the amount of IL-6 produced in the presence of vehicle.

Structure (SMILES)	IC50 [1] [nM]	IC50 [2] [nM]	IC50 [3] [nM]
C=C/C(=C\C=C\OCCN1CCCC1)Cc1c(-c2ccc(C(F)(F)F)cc2)c(=O)oc2cc(O)ccc12	9.35	15.8	1.45
O=c1oc2cc(O)ccc2c(Cc2ccc(OCCN3CCCC3)cc2)c1-c1ccc(C(F)(F)F)cc1Cl	3.4	5.5	0.4
O=c1oc2cc(O)ccc2c(Cc2ccc(OCCN3CCCC3)cc2)c1-c1ccc(C(F)(F)F)cc1C(F)(F)F	6.6	19	0.41
O=c1oc2cc(O)ccc2c(Cc2ccc(OCCN3CCCC3)cc2)c1-c1ccc(Cl)cc1C(F)(F)F	3.2	4.1	0.45
O=c1oc2cc(O)ccc2c(Cc2ccc(OCCN3CCCC3)cc2)c1-c1ccc(Cl)cc1Cl	0.69	5.4	0.32
